Test results taken from the NIST ThermoML archive (doi:10.1016/j.jct.2016.03.001).

Assay: molar heat capacity at constant pressure
Details: 101.33 kPa, Crystal, Small sample (50 mg) DSC

O=[PH](O)O [phosphonic acid]
Details	molar heat capacity at constant pressure [J/K/mol]
243.2 K	48.3
244.2 K	48.54
245.2 K	48.62
246.2 K	48.87
247.2 K	49.03
248.2 K	49.36
249.2 K	49.69
250.2 K	49.77
251.2 K	50.1
252.2 K	50.35
253.2 K	50.59
254.2 K	50.59
255.2 K	50.84
256.2 K	51
257.2 K	51.08
258.2 K	51.17
259.2 K	51.33
260.2 K	51.49
261.2 K	51.9
262.2 K	52.15
263.2 K	52.48
264.2 K	52.72
265.2 K	52.97
266.2 K	53.22
267.2 K	53.54
268.2 K	53.87
269.2 K	54.2
270.2 K	54.28
271.2 K	54.45
272.2 K	54.69
273.2 K	54.86
274.2 K	55.35
275.2 K	55.76
276.2 K	57.81
277.2 K	58.46
278.2 K	57.32
279.2 K	56.91
280.2 K	57.15
281.2 K	57.32
282.2 K	57.56
283.2 K	57.81
284.2 K	57.64
285.2 K	57.64
286.2 K	57.89
287.2 K	58.87
288.2 K	60.18
289.2 K	60.02
290.2 K	60.02
291.2 K	60.1
292.2 K	60.59
293.2 K	61.09
294.2 K	61
295.2 K	61.09
296.2 K	61.5
297.2 K	61.58
298.2 K	62.07
299.2 K	62.48
300.2 K	62.81
301.2 K	63.38
302.2 K	63.63
303.2 K	64.45
304.2 K	64.94
305.2 K	65.35
306.2 K	65.76
307.2 K	66.33
308.2 K	66.74
309.2 K	67.4
310.2 K	67.65
311.2 K	68.06
312.2 K	68.71
313.2 K	69.37
314.2 K	70.11
315.2 K	70.35
316.2 K	71.09
317.2 K	71.66
318.2 K	72.48
319.2 K	73.22
320.2 K	73.88
321.2 K	75.03
322.2 K	75.93
323.2 K	77.24
324.2 K	78.55
325.2 K	80.44
326.2 K	81.91
327.2 K	83.64
328.2 K	85.11
